# Measured values from US20120270237A9, “METHODS FOR THE IDENTIFICATION OF KINASE INTERACTING MOLECULES AND FOR THE PURIFICATION OF KINASE PROTEINS” (Cellzone AG, priority 2009, published 2012).
# What was measured:
# Experiment in all cases: Kinobeads competition binding, L-363 cell lysate
# Parameters in all cases: endogenous in cells
# Details in all cases: 10 μM free compound, L-363 lysate
# Wee1 = Wee1 (Homo sapiens, UniProt P30291)
# Method: (§1) To one aliquot of cell lysate 10 μM of the free compound (FIG. 3, CZC31326) was added and allowed to bind to proteins in the lysate. Then the affinity matrix with the immobilized compound was added to capture proteins that were not interacting with the previously added free compound. Beads were separated from the lysate and bead bound proteins were eluted in SDS sample buffer and subsequently separated by SDS-Polyacrylamide gel electrophoresis (FIG. 8). Suitable gel bands were cut out and subjected to in-gel proteolytic digestion with trypsin. The second lysate aliquot was processed identically, however no free compound was added (DMSO solvent control). Peptides originating from samples 1 and 2 were labeled with iTRAQ reagents (iTRAQ 114 and iTRAQ 117) and the combined samples were analyzed with a nano-flow liquid chromatography system coupled online to a tandem mass spectrometer (LC-MS/MS) experiment followed by iTRAQ reporter ion quantification in the MS/MS spectra as described in Example 2.
# (§2) For this experiment the human plasma cell leukaemia line L-363 was used (German Collection of Microorganisms and Cell Cultures, DSMZ number ACC49, Braunschweig, Germany). Cells were treated for three hours with 20 μM of the proteasome inhibitor MG132 (Z-Leu-Leu-Leu-al, Sigma C2211) prior to cell harvesting.
# MARK2 = MARK2 (Homo sapiens, UniProt Q7KZI7)
# Sequence of MARK2 (Q7KZI7 whole entry): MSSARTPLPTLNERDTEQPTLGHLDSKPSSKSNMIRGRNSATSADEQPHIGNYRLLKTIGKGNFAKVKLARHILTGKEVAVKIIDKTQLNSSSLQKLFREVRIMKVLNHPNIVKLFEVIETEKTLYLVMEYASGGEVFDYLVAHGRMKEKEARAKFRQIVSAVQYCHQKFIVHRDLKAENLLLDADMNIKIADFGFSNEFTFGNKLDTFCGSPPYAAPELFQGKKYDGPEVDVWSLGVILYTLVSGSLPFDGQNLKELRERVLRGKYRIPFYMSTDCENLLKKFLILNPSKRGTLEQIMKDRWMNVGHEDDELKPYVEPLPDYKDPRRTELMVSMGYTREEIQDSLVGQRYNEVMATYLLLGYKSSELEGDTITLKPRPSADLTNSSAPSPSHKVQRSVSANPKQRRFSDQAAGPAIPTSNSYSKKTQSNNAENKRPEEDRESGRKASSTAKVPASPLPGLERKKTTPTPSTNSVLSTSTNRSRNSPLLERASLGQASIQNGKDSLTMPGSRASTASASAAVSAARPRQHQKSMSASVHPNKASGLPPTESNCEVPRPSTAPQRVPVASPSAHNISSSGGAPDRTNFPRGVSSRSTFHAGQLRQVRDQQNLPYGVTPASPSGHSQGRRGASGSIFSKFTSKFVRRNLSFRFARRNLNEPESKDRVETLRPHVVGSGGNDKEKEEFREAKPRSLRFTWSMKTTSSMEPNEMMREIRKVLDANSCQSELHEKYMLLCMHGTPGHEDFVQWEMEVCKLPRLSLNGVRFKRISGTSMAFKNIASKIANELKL
# Method: as §1, §2
# JNK1 = JNK1 (Homo sapiens, UniProt P45983)
# Sequence of JNK1 (P45983 whole entry): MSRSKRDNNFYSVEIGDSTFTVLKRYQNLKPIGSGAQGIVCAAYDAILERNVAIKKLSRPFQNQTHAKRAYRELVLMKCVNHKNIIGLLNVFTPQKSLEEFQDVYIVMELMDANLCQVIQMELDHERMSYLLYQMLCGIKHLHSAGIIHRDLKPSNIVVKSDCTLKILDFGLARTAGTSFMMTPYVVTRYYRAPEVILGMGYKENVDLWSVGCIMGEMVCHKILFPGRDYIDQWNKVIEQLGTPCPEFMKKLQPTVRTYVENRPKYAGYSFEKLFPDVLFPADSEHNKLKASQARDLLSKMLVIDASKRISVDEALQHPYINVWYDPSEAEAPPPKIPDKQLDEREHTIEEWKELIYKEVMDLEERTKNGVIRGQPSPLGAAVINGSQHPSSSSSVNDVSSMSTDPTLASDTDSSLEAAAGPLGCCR
# Method: as §1, §2
# MPSK1 = MPSK1 (Homo sapiens, UniProt O75716)
# Sequence of MPSK1 (O75716 whole entry): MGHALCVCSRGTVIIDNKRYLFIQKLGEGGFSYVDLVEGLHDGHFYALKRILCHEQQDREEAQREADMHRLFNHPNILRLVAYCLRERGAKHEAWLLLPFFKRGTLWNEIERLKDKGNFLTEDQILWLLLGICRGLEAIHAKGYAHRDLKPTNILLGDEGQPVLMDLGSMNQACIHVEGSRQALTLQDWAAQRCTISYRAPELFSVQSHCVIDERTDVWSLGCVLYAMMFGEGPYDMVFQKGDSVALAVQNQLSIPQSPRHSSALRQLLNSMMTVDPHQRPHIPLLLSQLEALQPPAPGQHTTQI
# Method: as §1, §2
# TAO3 = target: T1, TAO3 (Homo sapiens, UniProt Q9H2K8)
# T1 sequence (Q9H2K8 1-898): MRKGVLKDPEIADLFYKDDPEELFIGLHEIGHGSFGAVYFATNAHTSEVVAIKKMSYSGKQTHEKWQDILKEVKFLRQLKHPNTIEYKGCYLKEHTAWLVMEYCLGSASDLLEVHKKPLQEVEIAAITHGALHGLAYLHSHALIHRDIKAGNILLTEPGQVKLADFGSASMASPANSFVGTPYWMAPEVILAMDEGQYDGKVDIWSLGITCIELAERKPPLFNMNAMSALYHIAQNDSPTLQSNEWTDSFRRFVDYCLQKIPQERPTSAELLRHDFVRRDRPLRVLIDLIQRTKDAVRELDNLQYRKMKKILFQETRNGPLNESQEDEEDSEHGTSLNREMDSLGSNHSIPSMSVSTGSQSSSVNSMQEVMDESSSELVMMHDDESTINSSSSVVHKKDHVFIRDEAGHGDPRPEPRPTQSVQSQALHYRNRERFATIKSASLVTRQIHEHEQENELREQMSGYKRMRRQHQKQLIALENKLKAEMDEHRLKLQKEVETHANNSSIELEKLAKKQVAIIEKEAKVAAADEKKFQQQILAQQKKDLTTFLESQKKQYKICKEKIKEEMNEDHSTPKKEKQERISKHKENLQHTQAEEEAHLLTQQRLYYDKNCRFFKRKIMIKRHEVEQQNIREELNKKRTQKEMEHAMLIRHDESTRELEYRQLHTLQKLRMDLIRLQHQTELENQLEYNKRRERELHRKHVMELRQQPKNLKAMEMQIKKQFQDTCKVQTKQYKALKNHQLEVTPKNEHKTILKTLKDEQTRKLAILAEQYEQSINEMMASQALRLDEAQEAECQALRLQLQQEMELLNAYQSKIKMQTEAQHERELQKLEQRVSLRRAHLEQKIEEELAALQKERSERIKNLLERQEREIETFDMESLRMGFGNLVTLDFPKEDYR
# Method: as §1, §2
# PIP5K2C = target: T2, PIP5K2C (Homo sapiens, UniProt Q8TBX8)
# T2 sequence (Q8TBX8 1-421): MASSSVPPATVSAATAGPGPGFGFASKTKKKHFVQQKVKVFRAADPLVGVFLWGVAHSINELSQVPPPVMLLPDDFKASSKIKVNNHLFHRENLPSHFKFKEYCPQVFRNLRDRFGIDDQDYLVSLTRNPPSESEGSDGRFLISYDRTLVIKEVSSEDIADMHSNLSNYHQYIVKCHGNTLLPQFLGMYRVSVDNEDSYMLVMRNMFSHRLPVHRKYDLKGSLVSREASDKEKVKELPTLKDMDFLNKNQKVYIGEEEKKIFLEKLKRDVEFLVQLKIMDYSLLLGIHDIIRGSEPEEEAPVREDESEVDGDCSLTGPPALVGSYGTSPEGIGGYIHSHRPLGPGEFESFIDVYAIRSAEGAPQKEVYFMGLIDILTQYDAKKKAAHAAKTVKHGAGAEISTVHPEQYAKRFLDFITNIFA
# Method: as §1, §2
# CaMK2d = CaMK2d (Homo sapiens, UniProt Q13557)
# Sequence of CaMK2d (Q13557 whole entry): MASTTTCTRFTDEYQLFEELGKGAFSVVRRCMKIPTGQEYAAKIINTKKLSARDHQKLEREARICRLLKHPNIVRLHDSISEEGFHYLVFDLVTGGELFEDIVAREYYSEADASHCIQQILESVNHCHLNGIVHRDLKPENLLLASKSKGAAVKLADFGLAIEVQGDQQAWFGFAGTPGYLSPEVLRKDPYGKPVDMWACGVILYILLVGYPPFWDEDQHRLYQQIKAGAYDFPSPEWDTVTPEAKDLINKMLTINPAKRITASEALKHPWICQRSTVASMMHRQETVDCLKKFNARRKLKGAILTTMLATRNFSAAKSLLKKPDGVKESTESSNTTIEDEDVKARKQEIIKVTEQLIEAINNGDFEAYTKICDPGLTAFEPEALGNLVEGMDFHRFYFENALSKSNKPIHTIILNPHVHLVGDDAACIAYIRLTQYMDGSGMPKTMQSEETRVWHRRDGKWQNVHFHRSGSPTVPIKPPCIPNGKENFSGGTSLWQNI
# Method: as §1, §2
# CaMK2g = CaMK2g (Homo sapiens, UniProt Q13555)
# Sequence of CaMK2g (Q13555 whole entry): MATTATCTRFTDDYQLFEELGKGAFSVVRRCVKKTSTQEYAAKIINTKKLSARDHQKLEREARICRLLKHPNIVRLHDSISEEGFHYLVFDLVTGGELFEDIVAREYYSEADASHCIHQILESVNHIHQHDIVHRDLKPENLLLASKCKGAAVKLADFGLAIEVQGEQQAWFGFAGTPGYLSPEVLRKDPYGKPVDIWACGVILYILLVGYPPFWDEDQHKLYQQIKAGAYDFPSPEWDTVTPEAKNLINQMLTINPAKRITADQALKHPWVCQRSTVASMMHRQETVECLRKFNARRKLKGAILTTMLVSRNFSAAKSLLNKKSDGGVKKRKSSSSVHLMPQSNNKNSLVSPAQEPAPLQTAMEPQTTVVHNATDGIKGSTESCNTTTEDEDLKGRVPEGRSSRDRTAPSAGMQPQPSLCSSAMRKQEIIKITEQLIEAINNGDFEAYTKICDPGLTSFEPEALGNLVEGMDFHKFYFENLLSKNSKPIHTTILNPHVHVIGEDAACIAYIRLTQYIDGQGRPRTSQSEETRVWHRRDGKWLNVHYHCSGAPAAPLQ
# Method: as §1, §2
# RSK3 = RSK3 (Homo sapiens, UniProt Q15349)
# Sequence of RSK3 (Q15349 whole entry): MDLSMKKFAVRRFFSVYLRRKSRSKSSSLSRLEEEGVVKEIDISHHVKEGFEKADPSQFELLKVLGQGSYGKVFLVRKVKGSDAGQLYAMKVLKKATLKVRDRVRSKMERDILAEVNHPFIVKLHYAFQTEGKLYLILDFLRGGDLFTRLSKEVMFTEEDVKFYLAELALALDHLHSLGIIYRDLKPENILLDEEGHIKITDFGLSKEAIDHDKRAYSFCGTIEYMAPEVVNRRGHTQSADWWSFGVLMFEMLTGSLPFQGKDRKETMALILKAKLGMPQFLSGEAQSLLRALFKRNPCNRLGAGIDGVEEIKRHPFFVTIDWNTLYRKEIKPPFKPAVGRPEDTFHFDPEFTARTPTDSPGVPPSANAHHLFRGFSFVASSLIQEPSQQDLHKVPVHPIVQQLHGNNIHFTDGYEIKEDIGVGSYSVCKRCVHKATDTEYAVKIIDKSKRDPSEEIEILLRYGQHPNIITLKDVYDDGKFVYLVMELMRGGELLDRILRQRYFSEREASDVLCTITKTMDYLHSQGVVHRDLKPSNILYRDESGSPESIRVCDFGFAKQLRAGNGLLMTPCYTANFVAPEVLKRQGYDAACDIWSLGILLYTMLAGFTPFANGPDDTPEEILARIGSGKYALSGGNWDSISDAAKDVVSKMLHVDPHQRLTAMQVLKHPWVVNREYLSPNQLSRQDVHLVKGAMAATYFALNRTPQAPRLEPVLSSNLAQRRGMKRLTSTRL
# Method: as §1, §2
# Sequence of Wee1 (P30291 whole entry): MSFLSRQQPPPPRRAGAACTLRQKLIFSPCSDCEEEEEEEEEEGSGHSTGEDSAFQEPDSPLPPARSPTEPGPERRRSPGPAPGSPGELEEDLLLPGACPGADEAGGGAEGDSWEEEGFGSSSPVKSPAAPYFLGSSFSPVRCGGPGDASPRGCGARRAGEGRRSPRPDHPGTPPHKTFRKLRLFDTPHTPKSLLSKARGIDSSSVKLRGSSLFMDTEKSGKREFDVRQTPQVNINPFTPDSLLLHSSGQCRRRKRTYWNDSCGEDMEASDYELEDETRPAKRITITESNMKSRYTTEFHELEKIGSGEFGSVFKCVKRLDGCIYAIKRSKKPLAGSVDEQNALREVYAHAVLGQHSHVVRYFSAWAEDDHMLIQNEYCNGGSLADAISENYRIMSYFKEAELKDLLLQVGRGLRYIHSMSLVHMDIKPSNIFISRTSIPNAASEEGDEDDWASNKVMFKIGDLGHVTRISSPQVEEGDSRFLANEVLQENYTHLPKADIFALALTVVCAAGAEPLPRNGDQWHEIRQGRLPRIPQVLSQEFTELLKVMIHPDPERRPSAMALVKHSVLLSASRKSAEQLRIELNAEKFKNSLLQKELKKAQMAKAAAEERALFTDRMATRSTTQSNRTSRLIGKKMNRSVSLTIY
structure (smiles),measurement,setting,value
"CS(=O)(=O)Nc1ccccc1Nc1nc(Nc2cccc(OCCN)c2)ncc1Cl [CZC31326, N-(2-(2-(3-(2-aminoethoxy)phenylamino)-5-chloropyrimidin-4-ylamino)phenyl)methanesulfonamide]",inhibition at 10 µM,Wee1,96.4%
same,inhibition at 10 µM,MARK2,97%
same,Competition %,JNK1,87%
same,inhibition at 10 µM,MPSK1,93.3%
same,inhibition at 10 µM,TAO3,94.7%
same,inhibition at 10 µM,PIP5K2C,92%
same,inhibition at 10 µM,CaMK2d,78%
same,inhibition at 10 µM,CaMK2g,75.9%
same,inhibition at 10 µM,RSK3,96.9%
